Source: US9260760B2, “Method for determining complete response to anticancer therapy” (Board of Regents, The University of Texas System, priority 2012, dated 2016)

How the values were obtained:
[1] = earlier study, cited from earlier work
[2] = Study 3: treatment-related toxicity of XCEL (CTCAE version 3.0); conditions: in vivo
Source text: (§1) The institutional review board approved this study. […] All patients had clinical examinations, laboratory and CT scan every 2-3 months.
(§2) The principal investigator and two board-certified radiologists reviewed all the CT scan images. CR was defined according to the RECIST criteria as complete disappearance of measurable or none-measurable disease. Effective CR (eCR) was coined to describe normalization of an anatomical structure (e.g. nodes) that cannot regress completely. Confirmed CR included those patients who had CR by meeting the RECIST criteria or had achieved eCR or pathological CR. Near CR (nCR) were defined as almost complete disappearance (95-99%) of measurable disease on CT scan. Relapse free survival (RFS) was defined as the time from first radiologic CR to first recurrence, progression, or death. […] OS was defined as the time from first radiologic CR to death from any cause. Treatment related toxicity was graded in accordance with the National Cancer Institute Common Toxicity Criteria for Adverse Events, version 3.0.

[3] = tested on: unresectable metastatic colorectal cancer; assay: Study 3: maintenance XCEL after CR; RFS, PFS, OS; format: in vivo, human
Source text: as §1
as §2, with “OS was defined as the time from first radiologic CR to death from any cause.” left out
Continuous variables were summarized using the median (range) and categorical variables were summarized in frequency tables. Patients were censored at the date of last follow-up if their disease had not progressed or if they had not died. The death date was ascertained by searching (ssdi.genealogy.rootsweb.com) using social security numbers or phone follow-up. Therefore, it was possible for censored OS times to be greater than censored RFS and PFS times. Kaplan-Meier estimates for RFS, PFS, and OS were calculated, and group comparisons made using log-rank tests.

[4] = Study 2: treatment-related toxicity of XCEL (CTCAE version 3.0); format: in vivo, human
Experimental: This retrospective study was approved by the institutional review board of The University of Texas M. D. Anderson Cancer Center. All sixty-six patients received concurrent capecitabine (Xeloda, Roche Nutley, N.J.) at mean daily dose 1000 mg/m^2/d bid for 14 days every 21 days or Monday-through Friday with radiation with daily celecoxib (CELEBREX®, Pfizer, N.Y.) at 200 mg PO b.i.d. from October 2000 to December 2003.
All patients were subjected to routine clinical examinations, laboratory analyses, and computed tomography before receiving XCEL described previously. All patient data were to be independently audited and radiographic images depicting CR were reviewed and agreed upon by two independent radiologists. All 19 patients had pathological confirmation of metastatic cancer ( ). Treatment-related toxicity was graded using the National Institutes of Health's Common Terminology Criteria for Adverse Events, version 3.0. Tumor responses were evaluated using RECIST criteria with complete response defined as complete radiographic disappearance of measurable or evaluable disease and normalization of tumor marker. The death date was ascertained by searching (ssdi.genealogy.rootsweb.com) using social security numbers. The cutoff point for collection of survival was October 2005.

[5] = Disease-free interval prior to metastasis <6 mo
[6] = Disease-free interval prior to metastasis ≧6 mo
[7] = Response to first-line therapy no
[8] = Response to first-line therapy yes

For Cc1ccc(-c2cc(C(F)(F)F)nn2-c2ccc(S(N)(=O)=O)cc2)cc1 [XCEL], the “incidence of grade ⅔ HFS” value ([1]; capecitabine 1000 mg/m2/d bid (Lin et al., 2002)) is given as 12.5%, the “grade ¾ diarrhea” value ([1]; versus capecitabine alone (Lin et al., 2002)) is given as “reduced” and the “Median mean corpuscular volume (MCV) increase from baseline after XCEL” value [2] is given as 11.5. For the same molecule, the cardiovascular toxicities [2] was “No cardiovascular toxicities were encountered”, the “pathological CR rate (observed)” value ([3]; 1/19) was 5% and the “two-year RFS” value ([3]; 14 unresected and R1-2 resected patients) was 71%. For the same molecule, the “2-year RFS (95% CI)” value ([3]; All patients) was 0.57 (0.39, 0.85), the “3-year OS (95% CI)” value ([3]; All patients) was 0.79 (0.59, 1.00) and the “2-year RFS (95% CI)” value [3, 5] was 0.64 (0 44, 1.00). For the same molecule, the “3-year OS (95% CI)” value [3, 5] was 0.75 (0.54, 1.00), the “2-year RFS (95% CI)” value [3, 6] was 0.50 (0.28, 0.88) and the “3-year OS (95% CI)” value [3, 6] was 0.74 (0.39, 1.00). For the same molecule, the “2-year RFS (95% CI)” value ([3]; Extrahepatic no) was 0.52 (0.15, 1.00), the “3-year OS (95% CI)” value ([3]; Extrahepatic no) was 0.79 (0.66, 1.00) and the “2-year RFS (95% CI)” value ([3]; Extrahepatic yes) was 0.50 (.20, 1.00). The “3-year OS (95% CI)” value ([3]; Extrahepatic yes) was 0.67 (0.55, 1.00), the “2-year RFS (95% CI)” value ([3]; LDH Abnormal) was 0.33 (0.07, 1.00) and the “3-year OS (95% CI)” value ([3]; LDH Abnormal) was 0.50 (0.13, 1.00). For the same molecule, the “2-year RFS (95% CI)” value ([3]; LDH Normal) was 0.62 (0.42, 0.91), the “3-year OS (95% CI)” value ([3]; LDH Normal) was 0.85 (0.68, 1.00) and the “2-year RFS (95% CI)” value ([3]; Maintenance XCEL no) was 0.00. For the same molecule, the “3-year OS (95% CI)” value ([3]; Maintenance XCEL no) was 0.38 (0.08, 1.00), the “2-year RFS (95% CI)” value ([3]; Metastatic Number non-solitary) was 0.60 (0.36, 1.00) and the “3-year OS (95% CI)” value ([3]; Metastatic Number non-solitary) was 0.60 (0 29, 1.00). The “2-year RFS (95% CI)” value ([3]; Metastatic Number solitary) was 0.56 (0.31, 1.00), the “3-year OS (95% CI)” value ([3]; Metastatic Number solitary) was 0.89 (0.71, 1.00) and the “2-year RFS (95% CI)” value ([3]; Metastectomy R0) was 0.20 (0.03, 1.00). The “3-year OS (95% CI)” value ([3]; Metastectomy R0) was 0.60 (0.29, 1.00), the “2-year RFS (95% CI)” value ([3]; Metastectomy none/R1-2) was 0.71 (0.51, 0.99) and the “3-year OS (95% CI)” value ([3]; Metastectomy none/R1-2) was 0.60 (0.80, 1.00). For the same molecule, the “3-year PFS” value ([3]; R0-2 resected patients) was 37%, the “two-year RFS” value ([3]; R0 resected patients excluding the one pathological CR patient) was 0% and the “2-year RFS (95% CI)” value ([3]; Radiation no) was 0.69 (1.40, 1.00). The “3-year OS (95% CI)” value ([3]; Radiation no) was 0.75 (0.43, 1.00), the “2-year RFS (95% CI)” value ([3]; Radiation yes) was 0.50 (0.28, 0.88) and the “3-year OS (95% CI)” value ([3]; Radiation yes) was 0.79 (0.56, 1.00). The “2-year RFS (95% CI)” value [3, 7] was 0.40 (0.25, 1.00), the “3-year OS (95% CI)” value [3, 7] was 0.65 (0.49, 1.00) and the “2-year RFS (95% CI)” value [3, 8] was 0.58 (0.39, 1.00). The “3-year OS (95% CI)” value [3, 8] was 1.00, the “2-year RFS (95% CI)” value ([3]; Stage at Diagnosis II/III) was 0.40 (0.19, 0.85) and the “3-year OS (95% CI)” value ([3]; Stage at Diagnosis II/III) was 0.77 (0.53, 1.00). The “2-year RFS (95% CI)” value ([3]; Stage at Diagnosis IV) was 0.78 (0.55, 1.00), the “3-year OS (95% CI)” value ([3]; Stage at Diagnosis IV) was 0.83 (0.58, 1.00) and the “2-year RFS (95% CI)” value ([3]; Tumor size <8 cm) was 0.62 (0.39, 1.00). The “3-year OS (95% CI)” value ([3]; Tumor size <8 cm) was 1.00, the “2-year RFS (95% CI)” value ([3]; Tumor size ≧8 cm) was 0.40 (0.14, 1.00) and the “3-year OS (95% CI)” value ([3]; Tumor size ≧8 cm) was 0.60 (0.29, 1.00). The “Two-year RFS” value ([3]; all 19 patients) was 57%, the “median RFS” value ([3]; all 19 patients) was “not reached” and the “CEA or CA19.9 during CR” value ([3]; all patients with elevated serum CEA or CA19.9) was “normalized”. The “3-year PFS” value ([3]; confirmed CR patients) was 100%, the CR ([3]; eight of nine first-line irinotecan responders, XCEL alone or with radiation) was 88% and the “two-year RFS” value ([3]; five R0 resected patients) was 20%. For the same molecule, the “estimated 3-year survival rate” value ([3]; from CR) was 79%, the “four year OS” value ([3]; from CR, maintenance XCEL) was 93% and the “median OS” value ([3]; from XCEL) was 51.9 months. For the same molecule, the “estimated 3-year survival rate” value ([3]; from diagnosis) was 95%, the “median OS” value ([3]; from onset of metastasis) was 73.3 months and the “median time from CR to relapse” value ([3]; in vivo) was 13.1 months. The “relapse while on XCEL” value ([3]; maintenance XCEL) was “no patient relapsed while on XCEL”, the “Two-year RFS estimate” value ([3]; maintenance XCEL group) was 73% and the “3-year PFS” value ([3]; unconfirmed CR patients) was 0%. The “3 year RFS” value ([3]; whole cohorts) was 57%, the “Two-year RFS estimate” value ([3]; without maintenance XCEL) was 0% and the “mean peak MCV increase before and after XCEL” value ([4]; compliant patients) was 10. The Hematologic toxicities ([4]; in vivo) was “limited to grade 1 neutropenia and thrombocytopenia”, the “grade ½ HFS” value ([4]; in vivo) was 28% and the “grade ½ diarrhea” value ([4]; in vivo) was 44%. The “grade ¾ lymphopenia” value ([4]; in vivo) was 28% and the “Median increase in mean corpuscular volume (MCV) before and after XCEL” value ([4]; range 5-20) was 10.
